Starred links: 1 amine or outer side, 2 acyl side, 3 side chain; linkers in the order of their positions; H or OH if unused. Positions of bridges follow the written chain, without caps; N, C: chain ends. Non-standard residues stand in square brackets, D forms with d. Residues, ends and D or L forms follow the SMILES beside them. ξ: configuration not given here. *: point of attachment. pTerphenylCO(4''-OnC5H11) = CCCCCOc1ccc(-c2ccc(-c3ccc(C(=O)*)cc3)cc2)cc1; ξOrn(4,5-diOH) = O=C(C(CC(O)C(O)N[*:3])N[*:1])[*:2]; ξhTyr(βξ-OH,γξ-OH) = NC(C(=O)O)C(O)C(O)c1ccc(O)cc1; Aoe = N[C@@H](CCCCCC(=O)[C@@H]1CO1)C(=O)O; ξPro(3ξ-OH,4ξ-Me) = CC1CNC(C(=O)O)C1O; Phe(ol) = N[C@H](CO)Cc1ccccc1; Hyp = O=C(O)[CH]1C[CH](O)CN1; Aib = CC(C)(N)C(=O)O
Experiments:
[1] = system: Trichomonas vaginalis G3 trophozoites; conditions: HTS single concentration, parasite screen 1 µg/mL; for T.vaginalis_%inb_Rep1: replicate 1; for T.vaginalis_%inb_Rep2: replicate 2
[2] = system: nontumorigenic neonatal foreskin fibroblast (NFF) cell line; conditions: NFF_NS1 screen 5 µg/mL, single concentration

SMILES	T.vaginalis_%inb_Rep1 [1] [%]	T.vaginalis_%inb_Rep2 [1] [%]	NFF_Activity [2]
COc1cc2c(c3oc(=O)c4c(c13)CCC4=O)[C@@H]1C=CO[C@@H]1O2 [BIA-A1232]	12.06	5.64	I (otherwise these were reported as inactive (I))
COc1cc2c(c3oc(=O)c4c(c13)CCC4=O)[C@@H]1CCO[C@@H]1O2 [BIA-A1233]	13.46	11.14	I (otherwise these were reported as inactive (I))
COc1cc2c(c3oc(=O)c4c(c13)CCOC4=O)[C@@H]1C=CO[C@@H]1O2 [BIA-A1234]	14.70	13.02	I (otherwise these were reported as inactive (I))
COc1cc2c(c3oc(=O)c4c(c13)CCOC4=O)[C@@H]1CCO[C@@H]1O2 [BIA-A1235]	12.33	13.81	I (otherwise these were reported as inactive (I))
CC[C@H]1OC(=O)[C@H](C)[C@@H](O[C@H]2C[C@@](C)(OC)[C@@H](O)[C@H](C)O2)[C@H](C)[C@@H](O[C@@H]2O[C@H](C)C[C@H](N(C)C)[C@H]2O)[C@](C)(O)C[C@@H](C)CN(C)[C@H](C)[C@@H](O)[C@]1(C)O [BIA-A1312]	6.35	11.21	I (otherwise these were reported as inactive (I))
Cc1c2c(c(O)c3c(O)cccc13)C(=O)[C@]1(O)C(=O)C(C(N)=O)=C(O)[C@@H](N(C)C)[C@@H]1C2.Cl [BIA-A1340]	6.73	9.54	I (otherwise these were reported as inactive (I))
CCC1OC(=O)C(C)C(OC2CC(C)(OC)C(O)C(C)O2)C(C)C(OC2OC(C)CC(N(C)C)C2O)C2(C)CC(C)C3(O2)OC1(C)C(O)C3C (stereo not drawn) [BIA-A1348]	15.19	13.67	I (otherwise these were reported as inactive (I))
C[C@@H]1NC(=O)[C@H](CCCCCC(=O)[C@@H]2CO2)NC(=O)[C@H]2CCCN2C(=O)[C@H](Cc2ccccc2)NC1=O [BIA-A1402] (cyclo(AF[dP][Aoe]))	64.03	94.29	I (otherwise these were reported as inactive (I))
C=C1C(=O)OC2C(=O)OC(CCCCCCCC)C12 (stereo not drawn) [BIA-A1409]	15.19	12.94	A (active (A) compounds having >25% inhibitory activity)
CCCCCOc1ccc(-c2ccc(-c3ccc(C(=O)NC4CC(O)C(O)NC(=O)C5C(O)C(C)CN5C(=O)C(C(C)O)NC(=O)C(C(O)C(O)c5ccc(O)cc5)NC(=O)C5CC(O)CN5C(=O)C(C(C)O)NC4=O)cc3)cc2)cc1 (stereo not drawn) [BIA-A1423] ({pTerphenylCO(4''-OnC5H11)}-[ξOrn(4,5-diOH)]T[Hyp][ξhTyr(βξ-OH,γξ-OH)]T[ξPro(3ξ-OH,4ξ-Me)]; lactam 1-C; configuration not given here)	14.75	12.08	I (otherwise these were reported as inactive (I))
CC1C=CC=CC=CC=CC=CC=CC=CC(OC2OC(C)C(O)C(N)C2O)CC2OC(O)(CC(O)CC(O)C(O)CCC(O)CC(O)CC(=O)OC(C)C(C)C1O)CC(O)C2C(=O)O (stereo not drawn) [BIA-A1441]	13.68	14.03	I (otherwise these were reported as inactive (I))
CCCCCC[C@H]1C(=O)O[C@H](C)[C@H](NC(=O)c2cccc(NC=O)c2O)C(=O)O[C@@H](C)[C@@H]1OC(=O)CC(C)C [BIA-A1442]	17.88	12.87	I (otherwise these were reported as inactive (I))
CCCC[C@H]1C(=O)O[C@H](C)[C@H](NC(=O)c2cccc(NC=O)c2O)C(=O)O[C@@H](C)[C@@H]1OC(=O)CC(C)C [BIA-A1444]	12.87	14.61	I (otherwise these were reported as inactive (I))
[N-]=[N+]=NCC(=O)N[C@H](CO)[C@H](O)c1ccc([N+](=O)[O-])cc1 [BIA-A1485]	12.55	16.12	I (otherwise these were reported as inactive (I))
CC[C@]1(C)C[C@@H](OC(=O)CSc2n[nH]c(N)n2)[C@]2(C)[C@H](C)CC[C@]3(CCC(=O)[C@H]32)[C@@H](C)[C@@H]1O [BIA-A1489]	14.65	19.67	I (otherwise these were reported as inactive (I))
CC(=O)N[C@H]1CCOC1=O [BIA-A1493]	15.89	26.61	I (otherwise these were reported as inactive (I))
CC(=O)NC(C)(C)C(=O)N1CCC[C@H]1C(=O)NC(C)(C)C(=O)N[C@@H](C)C(=O)NC(C)(C)C(=O)N[C@@H](C)C(=O)N[C@@H](CCC(N)=O)C(=O)NC(C)(C)C(=O)N[C@H](C(=O)NC(C)(C)C(=O)NCC(=O)N[C@@H](CC(C)C)C(=O)NC(C)(C)C(=O)N1CCC[C@H]1C(=O)N[C@H](C(=O)NC(C)(C)C(=O)NC(C)(C)C(=O)N[C@@H](CCC(N)=O)C(=O)N[C@@H](CCC(N)=O)C(=O)N[C@H](CO)Cc1ccccc1)C(C)C)C(C)C [BIA-A1543] (Ac-[Aib]P[Aib]A[Aib]AQ[Aib]V[Aib]GL[Aib]PV[Aib][Aib]QQ[Phe(ol)])	13.73	13.74	I (otherwise these were reported as inactive (I))

SMILES	T.vaginalis_%inb_Rep1 [1] [%]	T.vaginalis_%inb_Rep2 [1] [%]	NFF_Activity [2]
Cc1c2c(c(O)c3c(O)ccc(Cl)c13)C(=O)[C@]1(O)C(O)=C(C(N)=O)C(=O)[C@@H](N(C)C)[C@@H]1C2.Cl [BIA-A1552]	13.30	11.71	I (otherwise these were reported as inactive (I))
CC[C@H](C)[C@H]1O[C@]2(C=C[C@@H]1C)C[C@@H]1C[C@@H](C/C=C(\C)[C@@H](O[C@H]3C[C@H](OC)[C@@H](O[C@H]4C[C@H](OC)[C@@H](O)[C@H](C)O4)[C@H](C)O3)[C@@H](C)/C=C/C=C3\CO[C@@H]4[C@H](O)C(C)C=C(C(=O)O1)[C@]34O)O2 (stereo partly drawn) [BIA-A1579]	15.89	15.40	I (otherwise these were reported as inactive (I))
CC[C@H](C)[C@H]1O[C@]2(C=C[C@@H]1C)C[C@@H]1C[C@@H](C/C=C(\C)[C@@H](O[C@H]3C[C@H](OC)[C@@H](O)[C@H](C)O3)[C@@H](C)/C=C/C=C3\CO[C@@H]4[C@H](O)C(C)=C[C@@H](C(=O)O1)[C@]34O)O2 [BIA-A1585]	14.27	12.58	I (otherwise these were reported as inactive (I))
CC[C@H](C)[C@H]1O[C@]2(C=C[C@@H]1C)C[C@@H]1C[C@@H](C/C=C(\C)[C@@H](O)[C@@H](C)/C=C/C=C3\CO[C@@H]4[C@H](O)C(C)=C[C@@H](C(=O)O1)[C@]34O)O2 [BIA-A1587]	13.62	16.27	I (otherwise these were reported as inactive (I))
COc1c(OC)c(-c2c[nH]c3ccccc23)c(OC)c(OC)c1-c1c[nH]c2ccccc12 [BIA-A1630]	13.41	14.03	I (otherwise these were reported as inactive (I))
C=CC(C)(C)C12CC3C(=O)N4C(CC5(C(C)(C)C=C)c6ccccc6NC45)C(=O)N3C1Nc1ccccc12 (stereo not drawn) [BIA-A1631]	14.16	13.96	I (otherwise these were reported as inactive (I))
O=C(N[C@H](COC(=O)[C@H](Cc1ccccc1)NC(=O)c1ccccc1)Cc1ccccc1)c1ccccc1 [BIA-A1643]	13.09	15.04	I (otherwise these were reported as inactive (I))
COC1=C(OC)C(=O)C(C)=C(C)C1=O [BIA-A1654]	13.09	16.34	A (active (A) compounds having >25% inhibitory activity)
C=CC(C)(C)C12CC3C(=O)Nc4ccccc4C(=O)N3C1Nc1ccccc12 (stereo not drawn) [BIA-A1686]	14.16	12.87	I (otherwise these were reported as inactive (I))
C=CC(C)(C)C12CC3C(=O)Nc4ccccc4C(=O)N3C1N(C(C)=O)c1ccccc12 (stereo not drawn) [BIA-A1687]	18.36	16.20	I (otherwise these were reported as inactive (I))
CCCCCCCCCCCCCCCc1cc(O)cc(O)c1 [BIA-A1689]	16.26	11.86	I (otherwise these were reported as inactive (I))
O=[N+]([O-])c1ncc[nH]1 [BIA-A1690]	15.19	9.83	I (otherwise these were reported as inactive (I))
CC(=O)NCCc1ccc(O)cc1 [BIA-A1731]	13.35	10.05	I (otherwise these were reported as inactive (I))
CC(=O)NCCc1c[nH]c2ccccc12 [BIA-A1732]	14.43	33.62	I (otherwise these were reported as inactive (I))
CC(=O)NCCc1cnc[nH]1 [BIA-A1737]	14.86	38.90	I (otherwise these were reported as inactive (I))
CC(=O)NCCc1c[nH]c2ccc(O)cc12 [BIA-A1738]	13.41	15.18	I (otherwise these were reported as inactive (I))
CC1(C)CC[C@]2(C(=O)O)CC[C@]3(C)C(=CC[C@@H]4[C@@]5(C)C[C@@H](O)[C@H](O)[C@@](C)(CO)[C@@H]5CC[C@]43C)[C@@H]2C1 [BIA-A1754]	13.25	12.44	I (otherwise these were reported as inactive (I))

— article PMC7897990, “TriTOX: A novel Trichomonas vaginalis assay platform for high-throughput screening of compound libraries” (International Journal for Parasitology: Drugs and Drug …, 2021)
